Measured values as given in paper doi:10.1101/704981v1 (biorxiv, 2019).

Biological target: EcThrRS (Escherichia coli, UniProt P0A8M3)
Assay: tRNA aminoacylation assay, initial rates, dose-response fit
Assay type: biochemical

Chain of EcThrRS (P0A8M3 whole entry): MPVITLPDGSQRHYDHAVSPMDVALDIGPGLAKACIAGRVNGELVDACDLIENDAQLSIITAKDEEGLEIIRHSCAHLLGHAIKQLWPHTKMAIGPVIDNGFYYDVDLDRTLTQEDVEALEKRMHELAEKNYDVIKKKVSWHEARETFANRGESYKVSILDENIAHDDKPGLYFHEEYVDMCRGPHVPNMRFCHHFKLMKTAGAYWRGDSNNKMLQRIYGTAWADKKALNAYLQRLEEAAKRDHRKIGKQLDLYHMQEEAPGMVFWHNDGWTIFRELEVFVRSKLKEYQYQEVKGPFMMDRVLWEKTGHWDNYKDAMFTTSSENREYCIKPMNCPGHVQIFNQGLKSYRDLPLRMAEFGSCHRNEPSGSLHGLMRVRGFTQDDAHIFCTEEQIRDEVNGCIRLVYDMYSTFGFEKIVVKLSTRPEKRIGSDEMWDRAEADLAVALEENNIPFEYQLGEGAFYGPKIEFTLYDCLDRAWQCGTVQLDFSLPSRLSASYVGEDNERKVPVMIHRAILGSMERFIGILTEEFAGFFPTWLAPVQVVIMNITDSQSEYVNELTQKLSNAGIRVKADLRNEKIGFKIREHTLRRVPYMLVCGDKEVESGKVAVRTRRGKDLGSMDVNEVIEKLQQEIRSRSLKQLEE

Question: How did the IC50 turn out when `O=C(N[C@@H]1C(=O)O[C@@H]1Cc1ccc([N+](=O)[O-])cc1)c1cccc(O)c1O` [compound 1, obafluorin] was run?
Answer: 0.092 ± 0.021 µM
